Assay results: publication PMC9115881, “Penicillin Derivatives Inhibit the SARS-CoV-2 Main Protease by Reaction with Its Nucleophilic Cysteine” (Journal of Medicinal Chemistry, 2022)
Entries after “also recorded” stand apart in the source; their conditions may differ.

Columns and labels:
[1] = target: T1, SARS-CoV-2 M^pro (Severe acute respiratory syndrome coronavirus 2, UniProt P0DTD1); experiment: biochemical; type: biochemical; settings: for M^pro inhibition, result in words: SPE-MS inhibition assay
[2] = target: T1, SARS-CoV-2 M^pro; experiment: Protein-observed M^pro assay (SPE-MS), covalent modification; type: binding; settings: M^pro 2.0 μM, inhibitor 11 or 33 μM, 45 min
Procedure: Selected compounds were tested for reaction with M^pro using protein-observed MS to inform on their mechanism of inhibition (Figure 2). Initially, M^pro was incubated with a ∼6-fold excess of the penicillin sulfone ester for 45 min and then analyzed by MS. […] When the inhibitor concentration was increased to ∼17-fold to account for the possibility of modifying all 12 M^pro cysteine or other residues, only low levels of a second covalent M^pro modification by the inhibitors were observed (Figure 2A–C). No evidence for fragmentation of the inhibitors once bound to M^pro was accrued.
Solutions of the inhibitors (100% DMSO) were dry-dispensed across 384-well polypropylene assay plates (Greiner) (for 11 or 33 μM top concentrations) using an ECHO 550 acoustic dispenser (Labcyte). DMSO was used as a negative control. Each reaction was performed in technical duplicates. The enzyme mixture (50 μL/well), containing M^pro (2.0 μM) in buffer (20 mM HEPES, pH 7.5), was dispensed across the penicillin-containing 384-well assay plates with a multidrop dispenser (Thermo Fischer Scientific). The reaction mixture was incubated for 45 min at 20 °C under an ambient atmosphere prior to analysis by SPE-MS.
MS analyses were performed using a RapidFire RF 365 high-throughput sampling robot (Agilent) attached to an iFunnel Agilent 6550 accurate mass Q-TOF mass spectrometer using a C4 cartridge and the same parameters as described above, with the exception of the gas temperature that was reduced to 225 °C. Protein spectra were deconvoluted for the m/z range 850–1350 Da, with a resolution of 2 Da and with a 10–60 kDa cutoff using the MaxEnt1 function in Agilent MassHunter Version 7. The deconvoluted files were extracted as csv files, sorted using Enthought Canopy GUI, and normalized and plotted using GraphPad Prism 9.

[3] = target: T1, SARS-CoV-2 M^pro; experiment: SPE-MS M^pro inhibition assay, 11mer peptide substrate; type: biochemical; settings: Table 1; compounds 15, 16: 11mer peptide as substrate; M^pro […], substrate 2.0 μM; read-out: IC50
[4] = Table 3, M^pro […], 37mer substrate 2.0 μM, mean ± SD, n ≥ 2, read-out: IC50
[5] = Table 2, M^pro […], 37mer substrate 2.0 μM, mean ± SD, n ≥ 2, read-out: IC50
[6] = Table S2, M^pro 0.15 μM, 37mer substrate peptide 2.0 μM, mean ± SD, n ≥ 2, read-out: IC50 [μM] using SPE-MS (37mer peptide)
[7] = Table 4, M^pro 0.15 μM, 37mer substrate 2.0 μM, mean ± SD, n ≥ 2, read-out: IC50
[8] = Table 1, M^pro […], 37mer substrate 2.0 μM, 15 min preincubation, mean ± SD, n ≥ 2, read-out: IC50
[9] = read-out: IC50 [μM] using SPE-MS (37mer peptide)

CC1(C)[C@H](C(=O)OCc2ccccc2)N2C(=O)[C@@H](NC(=O)COc3c(F)c(F)c(F)c(F)c3F)[C@H]2S1(=O)=O [Compound 25h]
M^pro inhibition, result in words [1]: did not alter M^pro inhibition substantially | IC50 [1, 4]: 5.3 ± 3.3 µM

COc1ccc(COC(=O)[C@@H]2N3C(=O)[C@@H](NC(=O)COc4ccccc4)[C@H]3S(=O)(=O)C2(C)C)cc1 [Compound 20k]
M^pro inhibition, result in words [1]: do not, at least efficiently, inhibit M^pro | IC50 [1, 5]: 31.1 ± 13.9 µM

CC1(C)[C@H](C(=O)OCc2ccc([N+](=O)[O-])cc2)N2C(=O)C(Br)(Br)[C@H]2S1(=O)=O [Compound 31, 6,6-dibromopenicillanic acid sulfone para-nitrobenzyl ester]
covalent modification of M^pro by protein-observed MS [2]: initial covalent M^pro binding is followed by rapid subsequent reaction to give new species

CC1(C)[C@H](C(=O)OCc2ccc3ccccc3c2)N2C(=O)[C@@H](NC(=O)COc3ccccc3)[C@H]2S1(=O)=O [Compound 20l]
M^pro inhibition, result in words [1]: do not, at least efficiently, inhibit M^pro | IC50 [1, 5]: > 50 µM

CC1(C)[C@H](C(=O)OCc2ccccc2)N2C(=O)[C@H](NC(=O)COc3ccccc3)[C@H]2S1(=O)=O [Compound 16, (6S)-penicillin V sulfone benzyl ester]
IC50 [3]: > 50 µM

COc1ccc(COC(=O)[C@@H]2N3C(=O)[C@@H](NC(=O)COc4ccccc4)[C@H]3SC2(C)C)cc1 [Compound 19k]
IC50 [1, 6]: 45.8 ± 11 µM

CC1(C)S[C@@H]2[C@H](NC(=O)COc3ccccc3)C(=O)N2[C@H]1C(=O)OCc1cc(F)cc(F)c1 [Compound 19d]
IC50 [1, 6]: > 50 µM

CC1(C)[C@H](C(=O)OCc2cccc(F)c2)N2C(=O)[C@@H](NC(=O)COc3ccccc3)[C@H]2S1(=O)=O [Compound 20b]
IC50 [1, 5]: 9.2 ± 3.7 µM

CC1(C)[C@H](C(=O)OCc2cc(F)c(F)c(F)c2)N2C(=O)[C@@H](NC(=O)COc3ccccc3)[C@H]2S1(=O)=O [Compound 20f]
IC50 [1, 5]: > 50 µM

CC1(C)[C@H](C(=O)OCc2ccc([N+](=O)[O-])cc2)N2C(=O)C(Br)(Br)[C@H]2[S+]1[O-] (stereo partly drawn) [Compound 32, 6,6-dibromopenicillaic acid (R)-sulfoxide para-nitrobenzyl ester]
IC50 [1, 7]: ~0.6 µM | covalent modification of M^pro by protein-observed MS [2]: initial covalent M^pro binding is followed by rapid subsequent reaction to give new species

CC1(C)S[C@@H]2[C@H](NC(=O)COc3ccccc3)C(=O)N2[C@H]1C(=O)O [Compound 12, penicillin V, reference compound]
IC50 [1, 8]: > 50 µM

CC1(C)[C@H](C(=O)OCc2ccccc2)N2C(=O)[C@@H](NC(=O)CNC(=O)c3ccccc3)[C@H]2S1(=O)=O [Compound 25d]
IC50 [1, 4]: > 50 µM

Cc1cc(COC(=O)[C@@H]2N3C(=O)[C@@H](NC(=O)COc4ccccc4)[C@H]3S(=O)(=O)C2(C)C)no1 [Compound 20n]
M^pro inhibition, result in words [1]: inhibit M^pro, albeit with slightly reduced potency compared to 10 | IC50 ([1]; Table 2, M^pro 0.15 μM, 37mer substrate 2.0 μM, mean ± SD, n ≥ 2, read-out: IC50): 9 ± 1.3 µM

CC1(C)[C@H](C(=O)OCc2ccccc2)N2C(=O)[C@@H](NC(=O)COc3ccccc3)C[C@H]2S1(=O)=O [Compound 17]
covalent modification of M^pro by protein-observed MS [2]: appears to inhibit M^pro via a different mechanism

CC1(C)[C@H](C(=O)OCc2ccccc2)N2C(=O)[C@@H](NC(=O)COC3CCCCC3)[C@H]2S1(=O)=O [Compound 25m]
covalent modification of M^pro by protein-observed MS [2]: covalent reaction with Cys145

CC1(C)[C@H](C(=O)OCc2ccccc2)N2C(=O)C[C@H]2S1(=O)=O [Compound 34]
IC50 ([1]; Table 4, M^pro […], 37mer substrate 2.0 μM, mean ± SD, n ≥ 2, read-out: IC50): > 50 µM

COC(=O)[C@@H]1N2C(=O)[C@@H](NC(=O)COc3ccccc3)[C@H]2S(=O)(=O)C1(C)C [Compound 20o]
IC50 [1, 5]: 7.9 ± 1.4 µM

CC(Oc1ccccc1)C(=O)N[C@@H]1C(=O)N2[C@@H](C(=O)OCc3ccc(F)cc3)C(C)(C)S(=O)(=O)[C@H]12 (some centres unmarked) [Compound 25j]
M^pro inhibition, result in words [1]: substantially reduced inhibition | IC50 [1, 4]: > 50 µM

CC1(C)S[C@@H]2[C@H](NC(=O)COc3ccccc3)C(=O)N2[C@H]1C(=O)OCc1ccccc1 [Compound 13]
IC50 [1, 8]: > 50 µM

CC1(C)[C@H](C(=O)OCc2ccccc2F)N2C(=O)[C@@H](NC(=O)COc3ccccc3)[C@H]2S1(=O)=O [Compound 20a]
IC50 [1, 5]: 5.8 ± 2 µM | covalent modification of M^pro by protein-observed MS [2]: covalent reaction with Cys145

CC1(C)[C@H](C(=O)OCc2ccccc2)N2C(=O)[C@@H](NC(=O)CNC(=O)OCc3ccccc3)[C@H]2S1(=O)=O [Compound 25e]
IC50 [1, 4]: > 50 µM

CC1(C)[C@H](C(=O)OCc2cccc([N+](=O)[O-])c2)N2C(=O)[C@@H](NC(=O)COc3ccccc3)[C@H]2S1(=O)=O [Compound 20i]
M^pro inhibition, result in words [1]: inhibited M^pro | IC50 [1, 5]: 13.3 ± 5.3 µM

CC1(C)[C@H](C(=O)OCc2cc(C(F)(F)F)cc(C(F)(F)F)c2)N2C(=O)[C@@H](NC(=O)COc3ccccc3)[C@H]2S1(=O)=O [Compound 20h]
M^pro inhibition, result in words [1]: inhibited M^pro | IC50 [1, 5]: 35.3 ± 2.2 µM

CC1(C)S[C@@H]2[C@H](NC(=O)COc3ccccc3)C(=O)N2[C@H]1C(=O)OCc1ccccc1F [Compound 19a]
IC50 [1, 9]: 47.7 ± 6.8 µM

CC(C)C[C@H](NC(=O)OCc1ccccc1)C(=O)N[C@@H]1C(=O)N2[C@@H](C(=O)OCc3ccccc3)C(C)(C)S(=O)(=O)[C@H]12 [Compound 25f]
IC50 [1, 4]: > 50 µM

CC1(C)S[C@@H]2[C@H](NC(=O)COc3ccccc3)C(=O)N2[C@H]1C(=O)OCc1ccc(F)cc1F [Compound 19e]
IC50 [1, 6]: > 50 µM

CC1(C)[C@H](C(=O)OCc2ccccc2)N2C(=O)[C@@H](NC(=O)OCc3ccccc3)[C@H]2S1(=O)=O [Compound 25a]
M^pro inhibition, result in words [1]: abolished M^pro inhibition | IC50 [1, 4]: > 50 µM | covalent modification of M^pro by protein-observed MS [2]: do not covalently react with Cys145; also recorded: does not modify M^pro covalently; also recorded: but not 25a

CC1(C)[C@H](C(=O)OCc2ccc(C(F)(F)F)o2)N2C(=O)[C@@H](NC(=O)COc3ccccc3)[C@H]2S1(=O)=O [Compound 20m]
M^pro inhibition, result in words [1]: inhibit M^pro, albeit with slightly reduced potency compared to 10 | IC50 [1, 5]: 10.2 ± 2.2 µM

CC1(C)[C@H](C(=O)OCc2ccc(F)cc2)N2C(=O)[C@@H](NC(=O)COc3ccccc3)[C@H]2S1(=O)=O [Compound 20c]
IC50 [1, 5]: 7.4 ± 2.3 µM | covalent modification of M^pro by protein-observed MS [2]: covalent reaction with Cys145

CC1(C)S[C@@H]2[C@H](NC(=O)COc3ccccc3)C(=O)N2[C@H]1C(=O)OCc1ccc(F)cc1 [Compound 19c]
IC50 [1, 9]: > 50 µM

CCOC(=O)[C@@H]1N2C(=O)[C@@H](NC(=O)COc3ccccc3)[C@H]2S(=O)(=O)C1(C)C [Compound 20p]
IC50 [1, 5]: 5.2 ± 0.6 µM | covalent modification of M^pro by protein-observed MS [2]: covalent reaction with Cys145

CC1(C)[C@H](C(=O)OCc2ccccc2)N2C(=O)[C@@H](NC(=O)CCc3ccccc3)[C@H]2S1(=O)=O [Compound 25b]
IC50 [1, 4]: 45.7 ± 0.9 µM | covalent modification of M^pro by protein-observed MS [2]: do not covalently react with Cys145

CC(Oc1ccccc1)C(=O)N[C@@H]1C(=O)N2[C@@H](C(=O)OCc3ccccc3)C(C)(C)S(=O)(=O)[C@H]12 (some centres unmarked) [Compound 25i]
M^pro inhibition, result in words [1]: substantially reduced inhibition | IC50 [1, 4]: > 50 µM

CC1(C)[C@H](C(=O)OCc2ccc([N+](=O)[O-])cc2)N2C(=O)[C@@H](NC(=O)COc3ccccc3)[C@H]2S1(=O)=O [Compound 20j, penicillin V sulfone para-nitrobenzyl ester]
M^pro inhibition, result in words [1]: do not, at least efficiently, inhibit M^pro | IC50 [1, 5]: > 50 µM

CC1(C)S[C@@H]2[C@H](NC(=O)COc3ccccc3)C(=O)N2[C@H]1C(=O)OCc1c(F)cc(F)cc1F [Compound 19g]
IC50 [1, 6]: > 50 µM

CC1(C)[C@H](C(=O)OCC#N)N2C(=O)[C@@H](NC(=O)COc3ccccc3)[C@H]2S1(=O)=O [Compound 20r]
IC50 [1, 5]: 9.7 ± 3.3 µM

O=c1[nH]sc2ccccc12 [BIT, benzoisothiazolinone, reference compound]
covalent modification of M^pro by protein-observed MS [2]: non-selectively undergoes covalent

CC1(C)[C@H](C(=O)OCc2ccccc2)N2C(=O)C(Br)(Br)[C@H]2S1(=O)=O [Compound 28, 6,6-dibromopenicillanic acid sulfone benzyl ester]
IC50 [1, 7]: ~0.6 µM | covalent modification of M^pro by protein-observed MS [2]: initial covalent M^pro binding is followed by rapid subsequent reaction to give new species
